Literature values in patent US20200000714A1, “OPHTHALMIC COMPOSITION COMPRISING PVP-I” (MEDIVIS S.R.L., priority 2016, published 2020).
Read-outs that look alike come from different tables or passages of the source.

For Povidone-iodine [PVP-I], the “free molecular iodine I2 concentration” value (10% solutions of PVP-I) is given as “about 1 ppm” and the “free molecular iodine I2 concentration” value (solutions with PVP-I concentration of 0.1%) is given as “about 20 ppm”.
